Measurements reported in patent US12357619B2, “Noradrenergic and specific serotonergic anxiolytic and antidepressant, method for the production and use thereof” (ALLA CHEM, LLC, priority 2020, dated 2025).
Like-named read-outs stand apart in the source and are kept apart here.

Legend:
Adrenergic α2B = molecular target: T1, Adrenergic α2B (Homo sapiens, UniProt P18089); test: Receptor activities, Ki (Table 1); assay type: binding
T1 sequence (P18089 1-450): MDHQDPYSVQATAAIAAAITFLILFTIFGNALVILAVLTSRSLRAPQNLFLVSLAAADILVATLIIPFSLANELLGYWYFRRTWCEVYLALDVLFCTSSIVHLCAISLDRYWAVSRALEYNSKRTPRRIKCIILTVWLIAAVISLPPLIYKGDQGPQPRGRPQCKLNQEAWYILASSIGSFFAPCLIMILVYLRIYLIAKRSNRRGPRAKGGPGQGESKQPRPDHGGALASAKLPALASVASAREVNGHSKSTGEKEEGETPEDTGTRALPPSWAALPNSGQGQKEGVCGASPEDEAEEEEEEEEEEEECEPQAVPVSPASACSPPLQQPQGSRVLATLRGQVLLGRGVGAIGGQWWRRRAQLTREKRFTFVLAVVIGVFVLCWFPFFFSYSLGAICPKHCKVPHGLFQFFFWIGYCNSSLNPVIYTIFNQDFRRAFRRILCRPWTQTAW

[1] = test system: people with generalized anxiety disorder (GAD); test: Randomized double-blind placebo-controlled GAD study, Hamilton depression scale (HAMD); assay type: in vivo, human; details: after 8 weeks
Procedure: (§1) Example 12. Efficacy and safety study of the oral drug of this invention made as a pharmaceutical composition of this invention in capsules. […] During the study, 3 scheduled visits were conducted in Week 2, Week 4, and Week 8 to assess the effectiveness and safety of the therapy as well as drug inventory and administration. During all of those visits, the patient's diary was checked, a drug inventory was made and the patients' compliance was assessed. In addition, adverse events, concomitant therapy, and vital signs were evaluated, urine drug screen was performed, and assessments using Hamilton Anxiety Rating Scale (HARS), Hamilton Depression Scale (HAMD), Clinical Global Impression-Severity (CGI-S), Clinical Global Impression-Improvement (CGI-I), and Visual Analog Scale (VAS) were made; women of child-bearing potential will take a urine pregnancy test. Also, during visits at Week 4 and Week 8 a physical examination was performed, body weight was measured, an ECG was performed in 12 leads and blood and urine samples were obtained for laboratory tests, namely: urinalysis and biochemical blood analysis, PK analysis before and 1 hour after taking the study drug (SD), and urinalysis. At Week 4, a blood sample was also obtained for genotyping by CYP2D6. […] During this time, a possible development of SD withdrawal syndrome against the background of placebo was evaluated. […]

[2] = test system: people with generalized anxiety disorder (GAD); test: Randomized double-blind placebo-controlled GAD study, clinical global impression-severity (CGI-S); assay type: in vivo, human; details: after 8 weeks
Procedure: as §1

[3] = test system: people with generalized anxiety disorder (GAD); test: Randomized double-blind placebo-controlled GAD study, adverse events; assay type: in vivo, human
Procedure: Example 12. Efficacy and safety study of the oral drug of this invention made as a pharmaceutical composition of this invention in capsules. […] During the study, 3 scheduled visits were conducted in Week 2, Week 4, and Week 8 to assess the effectiveness and safety of the therapy as well as drug inventory and administration. During all of those visits, the patient's diary was checked, a drug inventory was made and the patients' compliance was assessed. In addition, adverse events, concomitant therapy, and vital signs were evaluated, urine drug screen was performed, and assessments using Hamilton Anxiety Rating Scale (HARS), Hamilton Depression Scale (HAMD), Clinical Global Impression-Severity (CGI-S), Clinical Global Impression-Improvement (CGI-I), and Visual Analog Scale (VAS) were made; women of child-bearing potential will take a urine pregnancy test. Also, during visits at Week 4 and Week 8 a physical examination was performed, body weight was measured, an ECG was performed in 12 leads and blood and urine samples were obtained for laboratory tests, namely: urinalysis and biochemical blood analysis, PK analysis before and 1 hour after taking the study drug (SD), and urinalysis. At Week 4, a blood sample was also obtained for genotyping by CYP2D6. At Week 8, treatment in the groups was completed, and all patients were prescribed a placebo to be taken during the follow-up period, which lasted 1 week. During this time, a possible development of SD withdrawal syndrome against the background of placebo was evaluated. During the visit at Week 9, the patient's diary was checked, a drug inventory was made and the patients' compliance was assessed. In addition, adverse events, concomitant therapy, and vital signs were evaluated, urine drug screen was performed, and assessments using the Hamilton Anxiety Rating Scale (HARS), Hamilton Depression Scale (HAMD), Clinical Global Impression-Severity (CGI-S), Clinical Global Impression-Improvement (CGI-I), and Visual Analog Scale (VAS) were made; women of child-bearing age will take a urine pregnancy test. At this point, the patients' participation in the study was completed, and they received recommendations for further treatment as part of standard GAD therapy.

[4] = Pharmacokinetics, single oral administration of capsules in healthy volunteers (Example 10); assay type: in vivo, human; details: for AUC(0-inf) / Tmax / Cmax: capsules; for AUC(0-inf) / Tmax: 8 volunteers; for Cmax: average of 8 volunteers
From the text: Clinical study of the safety of the oral drug of this invention.

[5] = male, human, blood, single oral dose 2 mg
[6] = male, human, blood, single oral dose 4 mg
[7] = male, human, blood, single oral dose 10 mg
[8] = male, human, blood, single oral dose 20 mg

Cc1ccc2c(c1)c1c(n2CCc2ccccc2)CCN(C)C1.Cl [A•HCl, 2,8-dimethyl-5-(2-phenylethyl)-2,3,4,5-tetrahydro-1H-pyrido[4,3-b]indole hydrochloride]
Ki (Adrenergic α2B): 0.41 nM
HAMD average change (standard error) ([1]; 40 mg, N = 42, average at Week 0 10.9): −5.2 (0.57)
HAMD average change (standard error) ([1]; 60 mg, N = 44, average at Week 0 10.9): −4.4 (0.56)
CGI-S average change (standard error) ([2]; 40 mg, N = 42, average at Week 0 4.24): −1.34 (0.19)
CGI-S average change (standard error) ([2]; 60 mg, N = 44, average at Week 0 4.28): −1.21 (0.19)
Adverse effect Bitter taste in mouth, pain in the left hypochondrium, % ([3]; 40 mg/day, 42 patients): 0.0%
Adverse effect Bitter taste in mouth, pain in the left hypochondrium, N (number of people) ([3]; 40 mg/day, 42 patients): 0
Adverse effect Constipation, % ([3]; 40 mg/day, 42 patients): 0.0%
Adverse effect Constipation, N (number of people) ([3]; 40 mg/day, 42 patients): 0
Adverse effect Daytime drowsiness, % ([3]; 40 mg/day, 42 patients): 2.4%
Adverse effect Daytime drowsiness, N (number of people) ([3]; 40 mg/day, 42 patients): 1
Adverse effect Decreased appetite, % ([3]; 40 mg/day, 42 patients): 2.4%
Adverse effect Decreased appetite, N (number of people) ([3]; 40 mg/day, 42 patients): 1
Adverse effect Dizziness, % ([3]; 40 mg/day, 42 patients): 0.0%
Adverse effect Dizziness, N (number of people) ([3]; 40 mg/day, 42 patients): 0
Adverse effect Elevated creatinine kinase level, % ([3]; 40 mg/day, 42 patients): 0.0%
Adverse effect Elevated creatinine kinase level, N (number of people) ([3]; 40 mg/day, 42 patients): 0
Adverse effect Headache, % ([3]; 40 mg/day, 42 patients): 4.8%
Adverse effect Headache, N (number of people) ([3]; 40 mg/day, 42 patients): 2
Adverse effect Impaired concentration, % ([3]; 40 mg/day, 42 patients): 0.0%
Adverse effect Impaired concentration, N (number of people) ([3]; 40 mg/day, 42 patients): 0
Adverse effect Increased psychic tension, % ([3]; 40 mg/day, 42 patients): 0.0%
Adverse effect Increased psychic tension, N (number of people) ([3]; 40 mg/day, 42 patients): 0
Adverse effect Insomnia, % ([3]; 40 mg/day, 42 patients): 2.4%
Adverse effect Insomnia, N (number of people) ([3]; 40 mg/day, 42 patients): 1
Adverse effect Jaw reduction, % ([3]; 40 mg/day, 42 patients): 0.0%
Adverse effect Jaw reduction, N (number of people) ([3]; 40 mg/day, 42 patients): 0
Adverse effect Low hemoglobin level, % ([3]; 40 mg/day, 42 patients): 2.4%
Adverse effect Low hemoglobin level, N (number of people) ([3]; 40 mg/day, 42 patients): 1
Adverse effect Nausea, % ([3]; 40 mg/day, 42 patients): 0.0%
Adverse effect Nausea, N (number of people) ([3]; 40 mg/day, 42 patients): 0
Adverse effect Nocturnal awakening, % ([3]; 40 mg/day, 42 patients): 0.0%
Adverse effect Nocturnal awakening, N (number of people) ([3]; 40 mg/day, 42 patients): 0
Adverse effect Sleepiness, % ([3]; 40 mg/day, 42 patients): 2.4%
Adverse effect Sleepiness, N (number of people) ([3]; 40 mg/day, 42 patients): 1
Adverse effect Tension in the body (back, arms, legs), % ([3]; 40 mg/day, 42 patients): 0.0%
Adverse effect Tension in the body (back, arms, legs), N (number of people) ([3]; 40 mg/day, 42 patients): 0
Adverse effect Tingling in the hands, % ([3]; 40 mg/day, 42 patients): 0.0%
Adverse effect Tingling in the hands, N (number of people) ([3]; 40 mg/day, 42 patients): 0
Adverse effect Weakness, % ([3]; 40 mg/day, 42 patients): 0.0%
Adverse effect Weakness, N (number of people) ([3]; 40 mg/day, 42 patients): 0
Adverse effect Bitter taste in mouth, pain in the left hypochondrium, % ([3]; 60 mg/day, 44 patients): 2.3%
Adverse effect Bitter taste in mouth, pain in the left hypochondrium, N (number of people) ([3]; 60 mg/day, 44 patients): 1
Adverse effect Constipation, % ([3]; 60 mg/day, 44 patients): 2.3%
Adverse effect Constipation, N (number of people) ([3]; 60 mg/day, 44 patients): 1
Adverse effect Daytime drowsiness, % ([3]; 60 mg/day, 44 patients): 0.0%
Adverse effect Daytime drowsiness, N (number of people) ([3]; 60 mg/day, 44 patients): 0
Adverse effect Decreased appetite, % ([3]; 60 mg/day, 44 patients): 0.0%
Adverse effect Decreased appetite, N (number of people) ([3]; 60 mg/day, 44 patients): 0
Adverse effect Dizziness, % ([3]; 60 mg/day, 44 patients): 9.1%
Adverse effect Dizziness, N (number of people) ([3]; 60 mg/day, 44 patients): 4
Adverse effect Elevated creatinine kinase level, % ([3]; 60 mg/day, 44 patients): 2.3%
Adverse effect Elevated creatinine kinase level, N (number of people) ([3]; 60 mg/day, 44 patients): 1
Adverse effect Headache, % ([3]; 60 mg/day, 44 patients): 13.6%
Adverse effect Headache, N (number of people) ([3]; 60 mg/day, 44 patients): 6
Adverse effect Impaired concentration, % ([3]; 60 mg/day, 44 patients): 2.3%
Adverse effect Impaired concentration, N (number of people) ([3]; 60 mg/day, 44 patients): 1
Adverse effect Increased psychic tension, % ([3]; 60 mg/day, 44 patients): 4.5%
Adverse effect Increased psychic tension, N (number of people) ([3]; 60 mg/day, 44 patients): 2
Adverse effect Insomnia, % ([3]; 60 mg/day, 44 patients): 0.0%
Adverse effect Insomnia, N (number of people) ([3]; 60 mg/day, 44 patients): 0
Adverse effect Jaw reduction, % ([3]; 60 mg/day, 44 patients): 2.3%
Adverse effect Jaw reduction, N (number of people) ([3]; 60 mg/day, 44 patients): 1
Adverse effect Low hemoglobin level, % ([3]; 60 mg/day, 44 patients): 0.0%
Adverse effect Low hemoglobin level, N (number of people) ([3]; 60 mg/day, 44 patients): 0
Adverse effect Nausea, % ([3]; 60 mg/day, 44 patients): 4.5%
Adverse effect Nausea, N (number of people) ([3]; 60 mg/day, 44 patients): 2
Adverse effect Nocturnal awakening, % ([3]; 60 mg/day, 44 patients): 2.3%
Adverse effect Nocturnal awakening, N (number of people) ([3]; 60 mg/day, 44 patients): 1
Adverse effect Sleepiness, % ([3]; 60 mg/day, 44 patients): 15.9%
Adverse effect Sleepiness, N (number of people) ([3]; 60 mg/day, 44 patients): 7
Adverse effect Tension in the body (back, arms, legs), % ([3]; 60 mg/day, 44 patients): 2.3%
Adverse effect Tension in the body (back, arms, legs), N (number of people) ([3]; 60 mg/day, 44 patients): 1
Adverse effect Tingling in the hands, % ([3]; 60 mg/day, 44 patients): 2.3%
Adverse effect Tingling in the hands, N (number of people) ([3]; 60 mg/day, 44 patients): 1
Adverse effect Weakness, % ([3]; 60 mg/day, 44 patients): 6.8%
Adverse effect Weakness, N (number of people) ([3]; 60 mg/day, 44 patients): 3
Safety profile and tolerability in patients ([3]; GAD patients, 40 and 60 mg/day, 8 weeks): favorable safety profile and good tolerability
Side effects observed ([3]; dose of 60 mg, GAD patients): headache, drowsiness, dizziness, weakness, nausea, increased anxiety
Dose dependence of Cmax and AUC ([4]; dose range from 2 to 20 mg): linear increase in Cmax and AUC
AUC(0-inf) [4, 5]: 0.0946 ng·h/mL
Tmax [4, 5]: 1 h
Cmax ([4]; male, human, blood, single oral dose 2 mg, read-out: Cmax): 0.0021 ng/mL
AUC(0-inf) [4, 6]: 0.211 ng·h/mL
Tmax [4, 6]: 1 h
AUC(0-inf) [4, 7]: 0.462 ng·h/mL
Tmax [4, 7]: 0.625 h
AUC(0-inf) [4, 8]: 0.834 ng·h/mL
Tmax [4, 8]: 1 h
half-life ([4]; male, human, blood, single oral doses 2 to 20 mg, read-out: Harmonic mean half-life): ≤ 14 h
Cmax ([4]; single oral dose 4 mg): 0.0229 ng/mL
Cmax ([4]; single oral dose 10 mg): 0.0537 ng/mL
Cmax ([4]; single oral dose 20 mg): 0.0841 ng/mL
Time at which the maximum concentration in the blood of the base (A) is reached ([4]; single oral doses 2 to 20 mg): about an hour
